Experimental data reported in the NIST ThermoML archive (doi:10.1016/j.tca.2011.08.002).

Columns and labels:
[1] = xn = mol fraction of the nth substance listed; conditions: 101 kPa, Liquid, Vibrating tube method
[2] = refractive index (Na D-line) (dimensionless); xn = mol fraction of the nth substance listed; conditions: 101 kPa, Liquid, Standard Abbe refractometry

C1CCC(NC2CCCCC2)CC1 [N-cyclohexylcyclohexanamine] + CCCO
Conditions	mass density, [1] [kg/m3]	refractive index, [2]
288.15 K, x2 = 0	915.498	1.48636
288.15 K, x2 = 0.0527	914.71	1.48522
288.15 K, x2 = 0.1009	913.805	1.48396
288.15 K, x2 = 0.2004	911.438	1.48074
288.15 K, x2 = 0.3002	908.197	1.47672
288.15 K, x2 = 0.4003	903.914	1.47182
288.15 K, x2 = 0.5005	898.063	1.46554
288.15 K, x2 = 0.6	889.96	1.45743
288.15 K, x2 = 0.6998	878.617	1.44689
288.15 K, x2 = 0.8	862.501	1.4327
288.15 K, x2 = 0.8999	839.78	1.41365
288.15 K, x2 = 0.9491	825.362	1.40206
293.15 K, x2 = 0	911.705	1.48416
293.15 K, x2 = 0.0527	910.893	1.48299
293.15 K, x2 = 0.1009	909.957	1.48175
293.15 K, x2 = 0.2004	907.522	1.47851
293.15 K, x2 = 0.3002	904.203	1.47445
293.15 K, x2 = 0.4003	899.835	1.4695
293.15 K, x2 = 0.5005	893.905	1.4632
293.15 K, x2 = 0.6	885.737	1.45509
293.15 K, x2 = 0.6998	874.377	1.44458
293.15 K, x2 = 0.8	858.315	1.43047
293.15 K, x2 = 0.8999	835.696	1.41145
293.15 K, x2 = 0.9491	821.334	1.39989
298.15 K, x2 = 0	907.923	1.48198
298.15 K, x2 = 0.0527	907.079	1.48079
298.15 K, x2 = 0.1009	906.116	1.47952
298.15 K, x2 = 0.2004	903.612	1.47626
298.15 K, x2 = 0.3002	900.208	1.47217
298.15 K, x2 = 0.4003	895.758	1.46722
298.15 K, x2 = 0.5005	889.747	1.46088
298.15 K, x2 = 0.6	881.518	1.45273
298.15 K, x2 = 0.6998	870.137	1.44226
298.15 K, x2 = 0.8	854.115	1.4282
298.15 K, x2 = 0.8999	831.592	1.40927
298.15 K, x2 = 0.9491	817.281	1.3977
303.15 K, x2 = 0	904.144	1.47978
303.15 K, x2 = 0.0527	903.271	1.47861
303.15 K, x2 = 0.1009	902.276	1.47729
303.15 K, x2 = 0.2004	899.7	1.47402
303.15 K, x2 = 0.3002	896.218	1.4699
303.15 K, x2 = 0.4003	891.683	1.46491
303.15 K, x2 = 0.5005	885.59	1.45856
303.15 K, x2 = 0.6	877.299	1.4504
303.15 K, x2 = 0.6998	865.887	1.43992
303.15 K, x2 = 0.8	849.899	1.42592
303.15 K, x2 = 0.8999	827.461	1.40709
303.15 K, x2 = 0.9491	813.202	1.39547
308.15 K, x2 = 0	900.372	1.47761
308.15 K, x2 = 0.0527	899.466	1.47642
308.15 K, x2 = 0.1009	898.437	1.47508
308.15 K, x2 = 0.2004	895.78	1.47179
308.15 K, x2 = 0.3002	892.225	1.46765
308.15 K, x2 = 0.4003	887.605	1.46262
308.15 K, x2 = 0.5005	881.429	1.45625
308.15 K, x2 = 0.6	873.074	1.44805
308.15 K, x2 = 0.6998	861.626	1.43759
308.15 K, x2 = 0.8	845.662	1.42358
308.15 K, x2 = 0.8999	823.3	1.40482
308.15 K, x2 = 0.9491	809.088	1.39323
313.15 K, x2 = 0	896.608	1.47562
313.15 K, x2 = 0.0527	895.664	1.4743
313.15 K, x2 = 0.1009	894.6	1.47287
313.15 K, x2 = 0.2004	891.876	1.4695
313.15 K, x2 = 0.3002	888.227	1.46533
313.15 K, x2 = 0.4003	883.521	1.46024
313.15 K, x2 = 0.5005	877.263	1.45383
313.15 K, x2 = 0.6	868.843	1.44565
313.15 K, x2 = 0.6998	857.35	1.43509
313.15 K, x2 = 0.8	841.4	1.42112
313.15 K, x2 = 0.8999	819.106	1.40242
313.15 K, x2 = 0.9491	804.934	1.39093
318.15 K, x2 = 0	892.847	1.47347
318.15 K, x2 = 0.0527	891.862	1.47211
318.15 K, x2 = 0.1009	890.759	1.47068
318.15 K, x2 = 0.2004	887.957	1.4673
318.15 K, x2 = 0.3002	884.225	1.46306
318.15 K, x2 = 0.4003	879.43	1.45795
318.15 K, x2 = 0.5005	873.086	1.45151
318.15 K, x2 = 0.6	864.613	1.44331
318.15 K, x2 = 0.6998	853.054	1.43279
318.15 K, x2 = 0.8	837.107	1.41883
318.15 K, x2 = 0.8999	814.869	1.40021
318.15 K, x2 = 0.9491	800.736	1.38876
323.15 K, x2 = 0	889.089	1.47134
323.15 K, x2 = 0.0527	888.061	1.46997
323.15 K, x2 = 0.1009	886.919	1.46853
323.15 K, x2 = 0.2004	884.032	1.4651
323.15 K, x2 = 0.3002	880.209	1.46087
323.15 K, x2 = 0.4003	875.326	1.4557
323.15 K, x2 = 0.5005	868.893	1.4492
323.15 K, x2 = 0.6	860.363	1.44112
323.15 K, x2 = 0.6998	848.736	1.43046
323.15 K, x2 = 0.8	832.782	1.41649
323.15 K, x2 = 0.8999	810.587	1.39788
323.15 K, x2 = 0.9491	796.489	1.38638
